Laboratory results from paper PMC10269604, “A 4-Hydroxybenzoic Acid-Mediated Signaling System Controls the Physiology and Virulence of Shigella sonnei” (Microbiology Spectrum, 2023).

Tests used:
[1] = target: T1, UbiC (SSON_4219) (Shigella sonnei, UniProt Q3YUU5); test: in vitro conversion to 4-HBA; format: biochemical; conditions: product 4-hydroxybenzoic acid
T1 construct: intact ubiC gene in pET28a(+), His-tagged fusion, expressed in E. coli BL21(DE3), His-Tag column

[2] = target: AaeR (SSON_3385); conditions: AaeR labelled with L014 Monolith protein labeling kit; 60% LED power, 40% MST power

T1 sequence (Q3YUU5 whole entry, the tested form may be a part): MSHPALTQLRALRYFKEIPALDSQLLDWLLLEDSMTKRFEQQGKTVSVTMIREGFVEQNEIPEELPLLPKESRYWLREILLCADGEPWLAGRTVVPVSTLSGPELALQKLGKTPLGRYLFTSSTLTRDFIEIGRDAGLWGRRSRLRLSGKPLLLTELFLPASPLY

Row | Structure (SMILES) | in vitro conversion to 4-HBA [1] | Kd [2] [µM]
1 | C=C(O[C@@H]1C=C(C(=O)O)C=C[C@H]1O)C(=O)O [chorismic acid] | UbiC directly catalyzed the conversion of chorismic acid to 4-HBA | –
2 | O=C(O)c1ccc(O)cc1 [4-hydroxybenzoic acid] | – | 23.1 ± 0.76
